The conditions of data set [1]: particle size less than 250 micrometers, compared with three other size ranges; 35 wt % in mineral oil added to 7.0 grams de-ionized water; FIG. 4. The protocol: In this example, samples incorporating various size ranges of anhydrous magnesium chloride suspended in mineral oil at 35 wt % were evaluated for their ability to generate heat upon introduction into water.
The four size ranges of anhydrous magnesium chloride evaluated were: (1) 1000-1500 microns; (2) 600-1000 microns; (3) 250-600 microns; and (4) less than 250 microns. To produce the samples of anhydrous magnesium chloride in mineral oil, the various size ranges of anhydrous magnesium chloride powder (Magnesium Interface Inc. (Vancouver, B.C., Canada) were suspended at 35 wt % in mineral oil (available as Drakeol 7 LT NF from Penreco, Dickinson, Tex.). To produce the samples having anhydrous magnesium chloride with size ranges of 1000-1500 microns, 600-1000 microns, and 250-600 microns, the as received anhydrous magnesium chloride powder was hand screened into the size ranges desired and the powders collected. These powders were suspended at 35 wt % in mineral oil using a cowles mixing blade. […]
All four samples were then added to 7.0 grams de-ionized water and the resulting temperature rise was measured using a J type Thermocouple (available from Omega Engineering, Inc., Stamford, Conn.).

Data set [2] has as its system Staphylococcus aureus. As to the kind of experiment: Biocidal efficacy of magnesium chloride in combination with PHMB, total plate count. Type of data set: cell-based. The following applies: 15-minute contact time. How it is done: A 1.5-milliliter tube was prepared using magnesium chloride in water.
Two control samples were also prepared. One control sample was filled with 0.850 milliliters magnesium chloride. A second control sample was prepared by introducing 0.850 milliliters sterile water.
The tubes were then vortexed until an increase in temperature was observed.
0.05 milliliters of 1×10^7 CFU/milliliter culture of Staphylococcus aureus was added to each tube. After a 15-minute contact time, 0.1 milliliters of each tube was transferred into 0.9 milliliters letheen broth. To the broth, 10 milligrams/milliliter sodium thiosulfate was also added. The tubes were again vortexed. After vortexing, 0.1 milliliters of each tube was plated on Tryptic soy agar plates. The plates were inverted and incubated at 37° C. for 24 hours. An inoculum control plate was also plated to determine the concentration of the inoculum
After 24 hours, the plates were evaluated using a total plate count to determine the biocidal efficacy of each sample.

The nature of data set [3]: Heat generation after soaking in de-ionized water. In kind it is physicochemical. The following applies: 0.73 grams added to 7.0 grams de-ionized water, no protective layer; FIG. 6. How it is done: Four samples of the calcium chloride particles including a moisture protective layer were then analyzed for their ability to generate heat after exposure to water. A control sample (calcium chloride) was also tested for heat generating capabilities and compared to the four samples of calcium chloride having a moisture protective layer.
To analyze the samples for heat generation, 0.80 grams of each sample of calcium chloride including a moisture protective layer was added to four separate vials each containing 7.0 grams of de-ionized water and 0.73 grams of the control sample was added to a fifth vial containing 7.0 grams of de-ionized water. Using a J type thermocouple (commercially available from Omega Engineering, Inc., Stamford, Conn.) and a data logger, the temperature of the samples was measured over a period of 180 seconds. The four vials containing the samples of microencapsulated heat delivery vehicle including a moisture protective layer were allowed to remain in the de-ionized water for 0.5 hours, 1.0 hour, 1.5 hours, and 2.0 hours, respectively, at which time the samples were activated by crushing the samples by hand using a metal rod. The temperature of the water in the four vials was measured for a period of 180 seconds after crushing the samples.

The conditions of data set [4]: particle size 149-355 micrometers, compared with four other size ranges; 35 wt % in mineral oil added to 7.0 grams de-ionized water; FIG. 3. How it is done: In this example, samples incorporating various size ranges of anhydrous calcium chloride suspended in mineral oil at 35 wt % were evaluated for their ability to generate heat upon introduction into water.
The five size ranges of anhydrous calcium chloride evaluated were: (1) less than 149 microns; (2) 149-355 microns; (3) 710-1190 microns; (4) 1190-2000 microns; and (5) 2000-4000 microns. The samples of anhydrous calcium chloride (Dow Chemical, Midland, Mich.) were dispersed in mineral oil (available as Drakeol 7 LT NF from Penreco, Dickinson, Tex.). The as received anhydrous calcium chloride were screened dry using a Gilson Sonic Sieve (Gilson Company, Inc. Columbus, Ohio) to create two sizes, a 1190-2000 micron size and a 2000-4000 micron size. These powders were then suspended at 35 wt % in mineral oil to form a slurry using a cowles mixing blade. To achieve the smaller size distributions, the anhydrous calcium chloride powder required further processing. […]
All five samples were then individually added to 7.0 grams de-ionized water and the resulting temperature rise was measured using a Barnant Scanning Thermocouple (available from Therm-X of California, Hayward, Calif.).

Data set [5] has as its system Methicillin-resistant Staphylococcus aureus. The following applies: for LOG10 Reduction: 0.005% PHMB vs no PHMB; for LOG10 Reduction / Total CFU Recovered MRSA: 10-minute contact time; for Total CFU Recovered MRSA: 0.005% PHMB, 5% bovine serum albumin soil, n = 2. How it is done: This Example utilized 1.5-milliliter tubes containing a 1-milliliter blend of phosphate-buffered saline (pH 7.2) and 5% (w/v) bovine serum albumin soil. The tubes were placed in electric heat blocks set for 22° C., 30° C., 40° C. and 50° C., respectively. The tubes remained in the electric heat blocks for approximately 10 minutes.
After 10 minutes, 0.005% (by weight) active polyhexamehtylene biguanide (PHMB) (commercially available as Cosmocil® CQ from Arch Biocides, Inc., United Kingdom) was added to two tubes at each temperature level. Duplicate tubes without PHMB at each temperature were also made.
The tubes were then vortexed and Methicillin-resistant Staphylococcus aureus (approximately 1×10^5 colony forming units (CFU)) was then added to each tube. All of the tubes were then placed back into the heat blocks at their respective temperatures.
Following a 10-minute contact time, 0.1 milliliters of each sample was transferred to 0.9 milliliters letheen broth to neutralize the PHMB activity. The letheen samples were then plated in duplicate on Tryptic Soy agar plates using a WASP2 spiral plater (commercially available from Don Whitley Scientific, Ltd., Yorkshire, United Kingdom). The plates were inverted and incubated at 37±2° C. for 48 hours.
After 48 hours, the plates were evaluated using a total plate count to determine the biocidal efficacy of each sample.

Read-outs that look alike come from different tables or passages of the source.

The results in this text go back to patent publication US20070145619A1, “Processes for producing microencapsulated delivery vehicles” (Kimberly-Clark Worldwide, Inc., priority 2005, published 2007).

For the molecule `[Cl-].[Cl-].[Mg+2]` [Magnesium Chloride, magnesium chloride], the “rate of heat generation” value in data set [1] was “highest rate”. In addition, in data set [2] (PHMB 0%, magnesium chloride 50%), the LOG10 recovered is given as 1.9 LOG10.
For the molecule `[Ca+2].[Cl-].[Cl-]` [Example 11 control sample, calcium chloride], the “heat production in water” value in data set [3] is reported as “produced heat immediately upon being introduced into water but only for a short period of time”.
For `[Ca+2].[Cl-].[Cl-]` [anhydrous calcium chloride, calcium chloride], the “rate of heat generation” value in data set [4] is given as “highest rate”.
Take polyhexamethylene biguanide [PHMB]: the “difference in efficacy between 22° C. and 50° C.” value in data set [5] (0.005% (by weight) active PHMB) is on record as “greater than 1.4 LOG10”. Moreover, the “LOG10 Reduction” value in data set [5] (22° C.) is reported as 2.1 LOG10; in data set [5] (30° C.), 2.8 LOG10; in data set [5] (40° C.), 3.5 LOG10; in data set [5] (50° C.), >3.5 LOG10. Besides, the “Total CFU Recovered MRSA” value in data set [5] (22° C.) is reported as 3.5 CFU; in data set [5] (30° C.), 2.9 CFU; in data set [5] (40° C.), 2.1 CFU; in data set [5] (50° C.) it was <2 CFU. In addition, the LOG10 recovered in data set [2] (PHMB 0.00025%, magnesium chloride 0%) came out at 4.8 LOG10.
